The values below come from the NIST ThermoML archive (doi:10.1021/je300044x).

± gives the expanded uncertainty stated by the source.

Series [1] in a line: Molar enthalpy of transition or fusion. The conditions noted are these: DSC.

For `NC(=O)c1cnccn1` [pyrazinecarboxamide], the Normal melting temperature (Crystal 1, DTA) was 188.27 ± 1.1 °C. Under “Crystal 2, DTA”, the Triple point temperature was found to be 420.36 ± 1.1 K. For the same compound, the “Molar enthalpy of transition or fusion” value in series [1] (Crystal 1) is 6.72 ± 0.194 kcal/mol; in series [1] (Crystal 2), 0.39 ± 0.0359 kcal/mol.
As for `CCn1cc[n+](C)c1.O=S(=O)([N-]S(=O)(=O)C(F)(F)F)C(F)(F)F`, under “Metastable crystal, visual observation”, the Normal melting temperature was -16.24 ± 2 °C.
